Results reported in patent US10683297B2 (Sunshine Lake Pharma Co., Ltd., priority 2017, dated 2020).
pIC50: −log10 of the molar value. Marks after values point to notes of the source that are not given here.

Experiments:
FLT3 (h) = target: T1, FLT3 (h) (Homo sapiens, UniProt P36888); test: FLT3 (h) kinase assay; assay type: biochemical; details: [γ-33P-ATP] 10 μM or KM values; cells of the FLT3 (h) column without (Flt4) tag
T1 construct: purchased Millipore UK Ltd (assays performed there as a service)
T1 sequence (P36888 27-993): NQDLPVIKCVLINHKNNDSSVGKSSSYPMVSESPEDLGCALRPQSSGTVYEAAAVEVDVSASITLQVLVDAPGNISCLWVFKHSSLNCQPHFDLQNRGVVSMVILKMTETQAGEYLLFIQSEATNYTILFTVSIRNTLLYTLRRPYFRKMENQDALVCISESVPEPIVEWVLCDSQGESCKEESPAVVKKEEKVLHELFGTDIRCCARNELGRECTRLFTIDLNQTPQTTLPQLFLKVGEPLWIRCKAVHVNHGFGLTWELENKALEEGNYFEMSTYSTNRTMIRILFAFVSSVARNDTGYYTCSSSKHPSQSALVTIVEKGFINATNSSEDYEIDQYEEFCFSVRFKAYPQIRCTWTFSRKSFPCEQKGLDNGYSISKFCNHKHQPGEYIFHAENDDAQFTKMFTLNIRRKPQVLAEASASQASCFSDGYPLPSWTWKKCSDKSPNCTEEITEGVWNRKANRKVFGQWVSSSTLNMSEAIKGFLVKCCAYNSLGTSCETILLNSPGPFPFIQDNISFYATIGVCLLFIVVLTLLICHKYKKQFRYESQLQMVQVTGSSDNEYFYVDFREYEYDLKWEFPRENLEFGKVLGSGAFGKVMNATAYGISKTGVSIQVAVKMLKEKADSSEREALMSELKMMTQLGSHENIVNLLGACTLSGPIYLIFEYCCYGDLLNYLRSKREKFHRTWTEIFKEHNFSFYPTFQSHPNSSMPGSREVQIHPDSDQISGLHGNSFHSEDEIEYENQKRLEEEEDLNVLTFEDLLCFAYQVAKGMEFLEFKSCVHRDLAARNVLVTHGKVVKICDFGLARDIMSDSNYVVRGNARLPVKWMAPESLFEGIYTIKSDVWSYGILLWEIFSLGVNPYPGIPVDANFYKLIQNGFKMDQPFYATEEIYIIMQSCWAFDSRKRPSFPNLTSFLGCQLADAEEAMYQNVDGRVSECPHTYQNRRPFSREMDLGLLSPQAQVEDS
Procedure: Kinase assays can be performed by measurement of incorporation of γ-^33P ATP into immobilized myelin basic protein (MBP). High binding white 384 well plates (Greiner) are coated with MBP (Sigma # M-1891) by incubation of 60 μL well of 20 μg/mL MBP in Tris-buffered saline (TBS; 50 mM Tris pH 8.0, 138 mM NaCl, 2.7 mM KCl) for 24 h at 4° C. Plates are washed 3× with 100 μL TBS. Kinase reactions are carried out in a total volume of 34 μL in kinase buffer (according to the need to make, for example, 5 mM Hepes pH 7.6, 15 mM NaCl, 0.01% bovine gamma globulin (Sigma #1-5506), 10 mM MgCl2, 1 mM DTT, 0.02% TritonX-100). Compound dilutions are performed in DMSO and added to assay wells to a final DMSO concentration of 1%. Each data point is measured in duplicate, and at least two duplicate assays are performed for each individual compound determination. Enzyme is added to final concentrations of 10 nM or 20 nM, for example. A mixture of unlabeled ATP and γ-^33P ATP is added to start the reaction (2×10^6 cpm of γ-^33P ATP per well (3000 Ci/mmole) and 10 μM unlabeled ATP, typically. The reactions are carried out for 1 hour at room temperature with shaking. Plates are washed 7× with TBS, followed by the addition of 50 μL well scintillation fluid (Wallac). Plates are read using a Wallac Trilux counter. This is only one format of such assays; various other formats are possible, as known to one skilled in the art.
The above assay procedure can be used to determine the IC50 for inhibition and/or the inhibition constant, Ki. […] The IC50 value is estimated by preparing a 10 point curve using a ½ log dilution series (for example, a typical curve may be prepared using the following compound concentrations: 3 μM, 1 μM, 0.3 μM, 0.1 μM, 0.03 μM, 0.01 μM, 0.003 μM, 0.001 μM, 0.0003 μM and 0 μM).
FLT3 (h) is incubated with 8 mM MOPS pH 7.0, 0.2 mM EDTA, 50 μM […], 10 mM MgAcetate and [γ-^33P-ATP] […] The reaction is initiated by the addition of the MgATP mix. […]

[1] = system: PMA-induced increase in mouse ear thickness and weight; test: Topical PMA-induced acute atopic dermatitis in ICR mice; assay type: in vivo; details: ICR female mice, 0.3 mg/ear/bid topical
Procedure: ICR female mice (20-30 g), five mice or nine mice/group, were used in this study. Five micrograms of PMA (phorbol 12-myristate 13-acetate) in 20 μL of ethanol was applied topically to the anterior and posterior surface of the right ear of each mouse. Twenty microliters of vehicle (ethanol/acetone ([…])=1/1); 0.3 mg of EX. 68 ([…]); EX. 76, EX. 50, EX. 92 or EX. 65 (0.3 mg […]) were administrated to the same areas 30 minutes before and 15 minutes after PMA application. The thickness of right ears of each mouse was measured 6 hours after PMA stimulation. Ear weight of right ears of each mouse was weighed with analytical balance Each value represents the Mean±Sem. Statistical significance compared with model groups (*P<0.05; **P<0.01). Tables 5-1, 5-2 and 5-3 listed the inhibitory effect on PMA-induced increase in mouse ear thickness and weight. The compounds of the present invention have a good inhibitory effect on PMA-induced increase in mouse ear thickness and weight.

Row | pIC50 (FLT3 (h)) | Structure (SMILES) | Weight Inhibition ratio [1] | thickness (right ear) ([1]; 30 minutes before and 15 minutes after PMA, 6 hours after PMA, Mean±Sem) | Weight (right ear) ([1]; 30 minutes before and 15 minutes after PMA, Mean±Sem) | thickness Inhibition ratio ([1]; 6 hours after PMA)
1 | 6.54 | CCC1CN(c2ccc(C#N)cn2)CCC1Nc1nc(Nc2ccn3c(C)cnc3c2)ncc1Cl (stereo not shown) [Example 2, 6-(4-((5-chloro-2-((3-methylimidazo[1,2-a]pyridin-7-yl)amino)pyrimidin-4-yl)amino)-3-ethylpiperidin-1-yl)nicotinonitrile] |  |  |  | 
2 | 6.23 | CCC1CN(c2ccc(C#N)nn2)CCC1Nc1nc(Nc2ccn3c(C)cnc3c2)ncc1Cl (stereo not shown) [Example 3, 6-(4-((5-chloro-2-((3-methylimidazo[1,2-a]pyridin-7-yl)amino)pyrimidin-4-yl)amino)-3-ethylpiperidin-1-yl)pyridazine-3-carbonitrile] |  |  |  | 
3 | 6.18 | Cc1cnc2cc(Nc3ncc(Cl)c(NC4CCN(c5ccc(C#N)nn5)CC4)n3)ccn12 [Example 12, 6-(4-((5-chloro-2-((3-methylimidazo[1,2-a]pyridin-7-yl)amino)pyrimidin-4-yl)amino)piperidin-1-yl)pyridazine-3-carbonitrile] |  |  |  | 
4 |  | CC(C)(O)c1cnc2cc(Nc3ncc(Cl)c(NC4CCN(c5ccc(C#N)cn5)CC4)n3)ccn12 [Example 68, 6-(4-((5-chloro-2-((3-(2-hydroxypropan-2-yl)imidazo[1,2-a]pyridin-7-yl)amino)pyrimidin-4-yl)amino)piperidin-1-yl)nicotinonitrile] | 80.6% | 0.219 ± 0.007** mm | 18.11 ± 1.14* mg | 86.6%
